Holding throughout (assay): relative viability (nuclei count vs DMSO), 5 days (fraction); higher = more cells survive
Compound in the test “VE-821 + Crizotinib”: CS(=O)(=O)c1ccc(-c2cnc(N)c(C(=O)Nc3ccccc3)n2)cc1 [VE-821] + C[C@@H](Oc1cc(-c2cnn(C3CCNCC3)c2)cnc1N)c1c(Cl)ccc(F)c1Cl [Crizotinib] (partner 1 µM)
Summed up: (§1)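 Five library-drug doses in √10 steps were combined with a fixed anchor-drug dose, or a single drug was given alone, by pin tool to lung cancer cell lines in 1536-well plates the day after seeding. Nuclei were stained and counted after 5 days. Relative viability is the nuclei count in treated wells over that in vehicle wells, taken as the median of duplicate plates.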

Compound in the test “VE-821 + Navitoclax”: CS(=O)(=O)c1ccc(-c2cnc(N)c(C(=O)Nc3ccccc3)n2)cc1 [VE-821] + CC1(C)CCC(c2ccc(Cl)cc2)=C(CN2CCN(c3ccc(C(=O)NS(=O)(=O)c4ccc(N[C@H](CCN5CCOCC5)CSc5ccccc5)c(S(=O)(=O)C(F)(F)F)c4)cc3)CC2)C1 [Navitoclax] (partner 0.5 µM)
Summed up: as §1

Compound in the test “Vismodegib + Lapatinib”: CS(=O)(=O)c1ccc(C(=O)Nc2ccc(Cl)c(-c3ccccn3)c2)c(Cl)c1 [Vismodegib] + CS(=O)(=O)CCNCc1ccc(-c2ccc3ncnc(Nc4ccc(OCc5cccc(F)c5)c(Cl)c4)c3c2)o1 [Lapatinib] (partner 2 µM)
Summed up: as §1

Compound in the test “Vismodegib + Alpelisib”: CS(=O)(=O)c1ccc(C(=O)Nc2ccc(Cl)c(-c3ccccn3)c2)c(Cl)c1 [Vismodegib] + Cc1nc(NC(=O)N2CCC[C@H]2C(N)=O)sc1-c1ccnc(C(C)(C)C(F)(F)F)c1 [Alpelisib] (partner 2 µM)
In outline:
as §1

As for UMC-11, the relative viability with VE-821 + Crizotinib (first compound 0.08 µM) worked out at 0.85; with VE-821 + Crizotinib (first compound 0.253 µM) it was 0.681; with VE-821 + Crizotinib (first compound 0.8 µM), 0.534; in the test with VE-821 + Crizotinib (first compound 2.53 µM), 0.626; with VE-821 + Crizotinib (first compound 8 µM), 0.238; with VE-821 + Navitoclax (first compound 0.08 µM), 0.358. Besides, the relative viability in the test with VE-821 + Navitoclax (first compound 0.253 µM) was 0.344; in the test with VE-821 + Navitoclax (first compound 0.8 µM) it was 0.332; in the test with VE-821 + Navitoclax (first compound 2.53 µM), 0.302; in the test with VE-821 + Navitoclax (first compound 8 µM), 0.222; in the test with Vismodegib + Lapatinib (first compound 0.08 µM) it was 0.915; in the test with Vismodegib + Lapatinib (first compound 0.253 µM) it was 0.971. The relative viability with Vismodegib + Lapatinib (first compound 0.8 µM) came to 0.893; with Vismodegib + Lapatinib (first compound 2.53 µM) it was 0.974; with Vismodegib + Lapatinib (first compound 8 µM) it was 0.598; in the test with Vismodegib + Alpelisib (first compound 0.08 µM) it was 1.01; with Vismodegib + Alpelisib (first compound 0.253 µM), 1.01; with Vismodegib + Alpelisib (first compound 0.8 µM) it was 1.05. Besides, the relative viability is 0.957 with Vismodegib + Alpelisib (first compound 2.53 µM) and 0.952 with Vismodegib + Alpelisib (first compound 8 µM).

Values taken from the supplement of paper PMC10307832.
